# From patent US20200270588A1, “GLUCOSYL TRANSFERASE POLYPEPTIDES AND METHODS OF USE” (Syngenta Participations AG, priority 2017, published 2020)
# What was measured:
# Assay type in all cases: in vivo
# [1] = tested on: transgenic tobacco plants expressing zmBX8 (SEQ ID No 2); experiment: Glass house spray test on tobacco, percent damage; details: 30 g/ha
# Description: In the present example, Zea mays BX8 or BX9 or orthologues of BX8/9, for example SEQ ID Nos. 1-59 and various herbicide-active mutations and combinations of mutations thereof (e.g. as listed in Tables 1-9) are expressed in transgenic tobacco. DNA sequences that encode these polypeptides (optimized for tobacco or, optionally, codon optimized according to a target crop such as soybean) are prepared synthetically and obtained commercially from Genewiz (South Plainfield, USA). Each sequence is designed to include a 5′ fusion with TMV omega 5′ leader (SEQ ID NO: 109). The DNA sequences are flanked at the 5′ end with XhoI and at the 3′ end with KpnI to facilitate direct cloning into a suitable binary vector for Agrobacterium-based plant transformation. […]
# Three transgenic populations of about forty tobacco plants and comprising, a glucosyl transferase gene encoding either zmBX8 (SEQ ID NO 2) or zmBX9 (SEQ ID NO 1) were thus produced. […] Plants were assessed for damage and scored at 7 and 14 days after treatment (DAT).
# [2] = tested on: transgenic tobacco plants expressing SEQ ID NO1 or SEQ ID NO 17; experiment: LC/MS of foliar extracts after herbicide treatment; details: 24 and 48 h after treatment, 80% acetonitrile/water extract
# Description: (§1) The expected glucosides of herbicides V and VI corresponding to those seen in vitro are also similarly produced in transgenic […] plants expressing Zea mays BX9 or expressing mutant derivatives of Zea mays BX9. For example, LC/MS analysis of extracts of leaves obtained by maceration and extraction into 80% acetonitrile/water 24 and 48 h after treatment with herbicides V and VI indicate that the same beta-glucosides that are produced by the enzymes in vitro are produced in planta.
# [3] = tested on: non-transgenic w/t Zea mays seedlings; experiment: LC/MS of foliar extracts after herbicide treatment; details: 24 and 48 h after treatment, 80% acetonitrile/water extract
# Description: as §1
structure (smiles),measurement,setting,value
CON1C(=O)N(c2cc(C(F)(F)F)ccn2)C(O)[C@@H]1C (stereo partly drawn) [Compound VI],tolerance,[1],little or no tolerance
same,glucoside found in foliar extract,[2],mainly the S-beta stereoisomer O-glucoside product of VI
same,glucoside found in foliar extract,[3],the S-beta stereoisomer O-glucoside product of VI
